# Earlier results in patent US8637323B2, “Fluorescent nitric oxide probes and associated methods” (Board of Regents, The University of Texas System, priority 2010, dated 2014).
# Legend:
# [1] = calculated with published photophysical parameters
smiles,measurement,setting,value
CC(=O)Oc1ccc2c(c1)Oc1cc(OC(C)=O)ccc1C21OC(=O)c2cc(N)c(N)cc21 [DAF-2 DA],fluorescence enhancement,[1],ca. 200 fold
same,NO concentration giving a fluorescence signal comparable to 1 mM DHA,,~300 nM
